One may read the IC50 as the concentration at which inhibition is half-maximal. What is called IC90 is the point of the concentration-response curve where the effect stands at 90%.

Assay [1] deals with K562/ADR (K562adr, drug-resistant chronic myeloid leukemia) cells. Nature of the assay: MTT cell growth inhibition, leukemia cells. Type of assay: cell-based. The following applies: Homo sapiens, K562/ADR, 72 h, MTT; for IC50: read-out: IC50; for IC90: read-out: IC90. An excerpt:
(§1) Leukemia cell lines: leukemia cell lines: K562adr (drug-resistant, chronic myeloid leukemia, CML), NB4 (acute promyelocytic leukemia, AML), Kasumi-1 (acute myeloid leukemia M2 type, AML-M2), Jurkat (acute lymphoblastic leukemia, ALL), all of which were donated by Cancer Research Institute of Zhejiang University, China; and H9 (acute lymphoblastic leukemia, ALL), which was purchased from China Center for Type Culture Collection.
(§2) Reagents: The standard sample of fangchinoline (FAN) was purchased from Ci Yuan Biotechnology Co., Ltd., Shaanxi, China; and the 7-substituted fangchinoline derivatives according to the present invention.
(§3) 6000 well-growing leukemia cells were obtained and inoculated into wells of a 96-well cell culture plate. The culture medium was a RPMI-1640 cell culture medium containing 10% fetal bovine serum. After adding the 7-substituted fangchinoline derivatives of different concentrations the next day and mixing uniformly, the plate was placed in a carbon dioxide cell incubator (5% CO2) at 37° C. and incubating for 72 hours. Then the viable cell concentration was determined by the MTT method.

For assay [2], the system named is NB4 (acute promyelocytic leukemia) cells. The assay is described as follows: MTT cell growth inhibition, leukemia cells. It is filed as cell-based. The following applies: Homo sapiens, NB4, 72 h, MTT; for IC50: read-out: IC50; for IC90: read-out: IC90.
Description: as §1, §2, §3

For assay [3], the system named is CaEs-17 (esophageal cancer) cells. The assay is described as follows: MTT cell growth inhibition, solid tumor cells. It is filed as cell-based, human. The following applies: for IC50 / IC90: Homo sapiens, CaEs17, CaEs-17, 72 h, MTT; for IC50: read-out: IC50; for IC90: read-out: IC90. In outline: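 Cells were first cultured for 24 h (6000/well, DMEM high glucose plus 10% fetal bovine serum, 37 °C, 5% CO2). Next they were treated with compound at different concentrations for 72 h, then assayed by MTT.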

In brackets after ≈: the same amount, converted by molar mass.

Consider `COc1ccc2cc1Oc1ccc(cc1)C[C@H]1c3cc(c(OC)cc3CCN1C)Oc1c(OCC3CC3)c(OC)cc3c1[C@H](C2)N(C)CC3` [BS-FC-208], for which the figures for the IC50 in assay [1], in assay [2] and in assay [3] were 0.28 µg/mL (≈ 0.422 µM), 0.48 µg/mL (≈ 0.724 µM) and 1.79 µg/mL (≈ 2.7 µM), respectively. The figures for the IC90 in assay [1], in assay [2] and in assay [3] were 2.35 µg/mL (≈ 3.55 µM), 2.48 µg/mL (≈ 3.74 µM) and 6.87 µg/mL (≈ 10.4 µM), respectively.

As to `COc1ccc2cc1Oc1ccc(cc1)C[C@H]1c3cc(c(OC)cc3CCN1C)Oc1c(OCC(O)CN3CCSCC3)c(OC)cc3c1[C@H](C2)N(C)CC3` (stereo partly shown) [BS-FC-417], the IC50 turned out to be 0.19 µg/mL (≈ 0.247 µM) in assay [1], 0.99 µg/mL (≈ 1.29 µM) in assay [2] and 1.82 µg/mL (≈ 2.37 µM) in assay [3]. Moreover, the figures for the IC90 in assay [1], in assay [2] and in assay [3] were 2.15 µg/mL (≈ 2.8 µM), 2.86 µg/mL (≈ 3.72 µM) and 7.67 µg/mL (≈ 9.99 µM), respectively.

With `COc1ccc2cc1Oc1ccc(cc1)C[C@H]1c3cc(c(OC)cc3CCN1C)Oc1c(OC(=O)c3c(F)cccc3Cl)c(OC)cc3c1[C@H](C2)N(C)CC3` [BS-FC-315], the IC50 in assay [1] turned out to be 0.26 µg/mL (≈ 0.34 µM); in assay [2], 0.33 µg/mL (≈ 0.431 µM); in assay [3] it was 1.84 µg/mL (≈ 2.4 µM). Also, the values for the IC90 in assay [1], in assay [2] and in assay [3] were 2.14 µg/mL (≈ 2.8 µM), 1.32 µg/mL (≈ 1.72 µM) and 3.86 µg/mL (≈ 5.04 µM), respectively.

In the case of `C=CCN(C)CC(O)COc1c(OC)cc2c3c1Oc1cc4c(cc1OC)CCN(C)[C@H]4Cc1ccc(cc1)Oc1cc(ccc1OC)C[C@@H]3N(C)CC2` (stereo partly shown) [BS-FC-409], the IC50 in assay [1] was 0.16 µg/mL (≈ 0.217 µM); in assay [2], 0.59 µg/mL (≈ 0.802 µM); in assay [3], 0.91 µg/mL (≈ 1.24 µM). Also, the IC90 in assay [1] is 1.38 µg/mL (≈ 1.88 µM); in assay [2] it was 1.76 µg/mL (≈ 2.39 µM); in assay [3], 4.9 µg/mL (≈ 6.66 µM).

Take `COc1ccc2cc1Oc1ccc(cc1)C[C@H]1c3cc(c(OC)cc3CCN1C)Oc1c(OS(=O)(=O)c3ccccc3)c(OC)cc3c1[C@H](C2)N(C)CC3` [BS-FC-104]: the IC50 in assay [1] is 0.42 µg/mL (≈ 0.561 µM); in assay [2], 0.28 µg/mL (≈ 0.374 µM); in assay [3] it was 2 µg/mL (≈ 2.67 µM). In addition, the values for the IC90 in assay [1], in assay [2] and in assay [3] were 2.65 µg/mL (≈ 3.54 µM), 0.92 µg/mL (≈ 1.23 µM) and 7.42 µg/mL (≈ 9.91 µM), respectively.

In the case of `COc1ccc2cc1Oc1ccc(cc1)C[C@H]1c3cc(c(OC)cc3CCN1C)Oc1c(OCC(O)CNCC3CC3)c(OC)cc3c1[C@H](C2)N(C)CC3` (stereo partly shown) [BS-FC-405], the half-inhibitory concentration (IC50) in assay [1] is 0.6 µg/mL (≈ 0.815 µM); in assay [2], 0.47 µg/mL (≈ 0.639 µM); in assay [3], 0.49 µg/mL (≈ 0.666 µM). For the same compound, the IC90 in assay [1] was 1.73 µg/mL (≈ 2.35 µM); in assay [2], 0.95 µg/mL (≈ 1.29 µM); in assay [3], 1.95 µg/mL (≈ 2.65 µM). Also, in assay [3] (relative to fangchinoline, Table 2), the “anti-CaEs-17 activity increase over fangchinoline” value is recorded as around 4 fold.

As to `COc1ccc2cc1Oc1ccc(cc1)C[C@H]1c3cc(c(OC)cc3CCN1C)Oc1c(OCC(O)CN3CCN(C#N)CC3)c(OC)cc3c1[C@H](C2)N(C)CC3` (stereo partly shown) [BS-FC-421], the concentration for half-maximal inhibition (IC50) in assay [1] came to 0.21 µg/mL (≈ 0.271 µM); in assay [2] it was 0.61 µg/mL (≈ 0.786 µM); in assay [3], 0.88 µg/mL (≈ 1.13 µM). In addition, the IC90 in assay [1] turned out to be 1.43 µg/mL (≈ 1.84 µM); in assay [2], 1.61 µg/mL (≈ 2.07 µM); in assay [3] it was 9.43 µg/mL (≈ 12.2 µM).

Take `C=C(C)COc1c(OC)cc2c3c1Oc1cc4c(cc1OC)CCN(C)[C@H]4Cc1ccc(cc1)Oc1cc(ccc1OC)C[C@@H]3N(C)CC2` [BS-FC-221]: the IC50 in assay [1] is 0.33 µg/mL (≈ 0.498 µM); in assay [2] it was 0.57 µg/mL (≈ 0.86 µM); in assay [3], 1.53 µg/mL (≈ 2.31 µM). Moreover, the IC90 in assay [1] was found to be 1.31 µg/mL (≈ 1.98 µM); in assay [2], 1.88 µg/mL (≈ 2.84 µM); in assay [3], 5.6 µg/mL (≈ 8.45 µM).

For `C=CCOc1c(OC)cc2c3c1Oc1cc4c(cc1OC)CCN(C)[C@H]4Cc1ccc(cc1)Oc1cc(ccc1OC)C[C@@H]3N(C)CC2` [BS-FC-213], the IC50 came to 0.38 µg/mL (≈ 0.586 µM) in assay [1], 0.66 µg/mL (≈ 1.02 µM) in assay [2] and 1.68 µg/mL (≈ 2.59 µM) in assay [3]. The IC90 in assay [1] came to 1.72 µg/mL (≈ 2.65 µM); in assay [2], 2.32 µg/mL (≈ 3.58 µM); in assay [3], 9.16 µg/mL (≈ 14.1 µM).

(Values after US9328122B2, “7-substituted Hanfangichin B derivative, and preparation method and use thereof” (HANGZHOU BENSHENG PHARMACEUTICAL CO., LTD., priority 2012, dated 2016).)
